{"source": "patent US20210276960A1", "about": "“INHIBITORS OF TISSUE TRANSGLUTAMINASE 2 (TG2) AND USES THEREOF” (Northwestern University, priority 2020, published 2021)", "system": "OVCAR5 cells adhesion to FN", "test": "Solid phase adhesion assay to FN, OVCAR5", "assay_type": "cell-based, human", "design": "inhibition of adhesion to FN relative to TG53: dose or concentration left out as unconfirmed", "experimental": "Cells labeled with calcein AM (Life Technologies, #L3224) were seeded at a density of 4×10^4 cells in 96-well plates pre-coated with FN (5 μg/mL, Sigma, #F1141), and blocked using 1% BSA (Sigma, #A9647) in PBS in the presence of selected compounds diluted at the specified concentrations, in serum free media. After 45 minutes, unattached cells were washed using PBS containing 1 mM MgCl2(Sigma, #M8266) and adherent cells were quantified in a SpectraMaxGeminiXS fluorescence plate reader (Molecular Devices, Palo Alto, Calif.) at 530 nm wavelength. Experiments were performed inquadruplicate and repeated at least twice.", "data": [{"smiles": "Cc1cc(N(C)C)nc(Nc2ccc(NC(=O)Cc3ccccc3)cc2)n1", "note": "[MT-4]", "values": [{"measurement": "inhibition of adhesion to FN relative to TG53", "result": "more active than TG53"}, {"measurement": "cell adhesion to FN, dose dependence", "setting": "2 μM-25 μM", "result": "dose-dependent inhibitory effect"}]}]}
